Measurements taken from the NIST ThermoML archive (doi:10.1016/j.tca.2008.05.004).

Assay: molar heat capacity at constant pressure
Conditions: 101.33 kPa, Crystal, Small (less than 1 g) adiabatic calorimetry

O=P([O-])([O-])[O-].[La+3] [lanthanum orthophosphate]
Conditions | molar heat capacity at constant pressure [J/K/mol]
2 K | 0.00122
4 K | 0.01153
6 K | 0.03674
8 K | 0.08437
10 K | 0.1669
12 K | 0.2994
14 K | 0.4971
16 K | 0.7738
18 K | 1.141
20 K | 1.605
25 K | 3.201
25.03 K | 3.418
25.8 K | 3.691
26.57 K | 3.997
27.34 K | 4.269
28.12 K | 4.62
28.89 K | 4.94
29.68 K | 5.294
30 K | 5.306
30.46 K | 5.695
31.24 K | 6.098
32.03 K | 6.511
32.86 K | 6.925
33.65 K | 7.346
34.44 K | 7.659
35 K | 7.89
35.24 K | 8.049
36.04 K | 8.576
36.84 K | 9.023
37.64 K | 9.523
38.44 K | 9.994
39.25 K | 10.48
40 K | 10.82
40.05 K | 10.95
40.86 K | 11.44
41.67 K | 11.92
42.48 K | 12.4
43.29 K | 12.88
44.1 K | 13.34
44.92 K | 13.87
45 K | 13.97
45.76 K | 14.39
48.2 K | 16.03
49.02 K | 16.52
49.84 K | 17.11
50 K | 17.23
50.65 K | 17.64
51.47 K | 18.19
52.29 K | 18.72
53.11 K | 19.27
53.93 K | 19.79
54.75 K | 20.27
55.57 K | 20.78
56.4 K | 21.36
57.22 K | 21.86
58.04 K | 22.41
58.89 K | 22.97
59.72 K | 23.49
60 K | 23.73
60.54 K | 24.01
61.37 K | 24.55
62.2 K | 25.1
63.03 K | 25.6
63.86 K | 26.14
64.69 K | 26.66
65.52 K | 27.24
66.35 K | 27.76
67.19 K | 28.22
68.02 K | 28.62
68.86 K | 29.07
69.7 K | 29.48
70 K | 29.93
70.93 K | 30.26
72.58 K | 31.21
73.58 K | 31.56
74.82 K | 32.17
76.07 K | 33.31
77.32 K | 33.78
78.55 K | 34.74
80 K | 35.68
80.58 K | 36.06
82.23 K | 36.9
83.88 K | 37.58
85.53 K | 38.39
87.18 K | 39.57
88.83 K | 40.58
90 K | 40.96
90.48 K | 41.33
92.13 K | 42.17
93.78 K | 42.97
95.43 K | 43.79
97.08 K | 44.53
100 K | 45.82
101.86 K | 46.91
102.42 K | 47.17
104.27 K | 47.95
104.88 K | 48.25
106.71 K | 49.05
107.34 K | 49.42
109.16 K | 50.14
109.8 K | 50.46
110 K | 50.3
111.6 K | 51.16
112.25 K | 51.55
114.04 K | 52.08
114.7 K | 52.52
116.47 K | 53.12
117.16 K | 53.55
119.61 K | 54.49
120 K | 54.48
122.06 K | 55.51
124.51 K | 56.3
126.96 K | 57.27
